Where two headings read alike, the source gives them in different places.
Key:
[1] = system: SARS-HCoV; details: Lee et al., 2003 and Poutanen et al.; cited from earlier work
[2] = system: SARS-HCoV, strain Frankfurt-1
[3] = system: Vero E6 cells
[4] = system: SARS-HCoV 2003VA2774; format: cell-based, SARS human coronavirus (SARS-HCoV)
[5] = system: Semliki Forest Virus; experiment: Protection of Vero E6 cells from Semliki Forest Virus cytopathic effect (crystal violet); format: cell-based, Semliki Forest Virus (SFV)
Protocol: Vero E6 cells were seeded in 96-well plate, at a density of 10000 cells per well. […] Media was removed from cells, and cells were washed in 1× PBS, then fixed for 10 minutes at room temperature in 4% paraformaldehyde in PBS. Paraformaldehyde was removed and cells were stained with 0.2% crystal violet in 2% ethanol for 10 minutes at room temperature. Stained plates were washed and degree of colouration was quantified at 630 nm using an ELISA reader. Triplicate data is presented in graph format (FIG. 2).

[6] = system: Vero E6 cells; experiment: Cytotoxicity on Vero E6 cells without viral challenge; format: cell-based, African Green Monkey; details: three days, inverted microscope
Protocol: To determine cytotoxicity, 100 microlitres of serial 10-fold dilutions of each treatment were incubated with 100 microlitres of Vero E6 cells giving a final cell count of 20,000 cells per well in a 96-well plate, without viral challenge.

[7] = system: SARS-HCoV; details: literature; cited from earlier work
[8] = system: 'common cold' coronaviruses; details: laboratory tests; cited from earlier work
[9] = 10^4 pfu/well, MOI 0.5, Vero E6 cells

## CCOC(=O)C1=C[C@@H](OC(CC)CC)[C@H](NC(C)=O)[C@@H](N)C1 [Oseltamivir]
[1]
  Therapeutic benefit in SARS-HCoV infection: has not shown any therapeutic benefit

## Intron A: recombinant alpha IFN product from Schering Plough (IFN-alpha 2b)
[2]
  IC50 Exp. Type 1, 10 TCID50: >3.125 IU/ml
  IC50 Exp. Type 1, 100 TCID50: >3.125 IU/ml
  IL50 Exp. Type 2, 10 TCID50: >3.125 IU/ml
  IL50 Exp. Type 2, 100 TCID50: >3.125 IU/ml
[3]
  Tendency to increase baseline levels in the cytotoxicity assay: no similar tendency
[4]
  Concentration up to which cells were not fully protected from SARS-HCoV infection: > 100000 IU/ml
  Inhibition of cytopathic effect: did not show significant inhibition
[5]; at 39 IU/ml
  Loss of protection: equivalent loss of protection
[5]; at 625 IU/ml
  Degree of protection: same degree of protection

## NC(=O)c1ncn([C@@H]2O[C@H](CO)[C@@H](O)[C@H]2O)n1 [Ribavirin]
[4]; [9]
  CIA100 (reached: Yes): Yes
  Concentration at which complete cytopathic effect: 5,000 μg/ml
[4]; cytopathic endpoint assay, Vero E6 cells
  Inhibition of cytopathic effect: inhibitory activity at all viral titres
[4]; high viral challenge 10^4 pfu/well, MOI 0.5
  Inhibition of cytopathic effect: Complete inhibition
[4]; virus load 100 pfu/well
  CIA100 (concentration inhibiting cytopathic effect in all four set-ups): 500 µg/mL
[4]; virus load 1,000 pfu/well
  CIA100 (concentration inhibiting cytopathic effect in all four set-ups): 5,000 μg/ml
[6]
  Cytotoxicity at inhibitory concentration: showed cytotoxicity
[7]
  Efficacy against SARS-HCoV in vitro: negative results

B1: Cystatin C: a protease inhibitor found in human blood (protein, UniProt P01034 27-146, looked up)
Cystatin-C: SSPGKPPRLVGGPMDASVEEEGVRRALDFAVGEYNKASNDMYHSRALQVVRARKQIVAGVNYFLDVELGRTTCTKTQPNLDNCPFHDQPHLKRKAFCSFQIYAVPWQGTMTLSKSTCQDA
[8]
  Replication of 'common cold' coronaviruses: found to block replication
